Assay results from patent publication US20200087340A1, “LIF/LIFR ANTAGONIST IN ONCOLOGY AND NONMALIGNANT DISEASES” (Evestra, Inc., priority 2018, published 2020).
Entries after “also recorded” stand apart in the source; their conditions may differ.

What was measured:
[1] = Plasma protein binding; assay type: in vitro ADME; details: mouse
[2] = tested on: various cancer cells lines; assay: Cytotoxicity assays in various cancer cell lines; assay type: cell-based
[3] = Plasma protein binding; assay type: in vitro ADME; details: dog
[4] = tested on: cancer cells; assay: Colony formation in soft agar (EC359); assay type: cell-based
[5] = Hepatocyte stability; assay type: in vitro ADME; details: Dog
[6] = Hepatocyte stability; assay type: in vitro ADME; details: Mouse
[7] = tested on: Cytochrome P450 (1A2, 2C9, 2C19, 2D6, 3A4); assay: CYP inhibition using human liver microsomes; assay type: in vitro ADME; details: human liver microsomes (1A2, 2C9, 2C19, 2D6, 3A4)
[8] = tested on: High trans-fat fructose diet induced liver fibrosis; assay: High fat diet (HFD) induced liver fibrosis in rats; assay type: in vivo, rat
[9] = Plasma protein binding; assay type: in vitro ADME; details: rat
[10] = tested on: ID-8 ovarian syngeneic tumor; assay: ID-8 ovarian syngeneic murine tumor model
Source text: CD3+T cells: T cell co-receptor helps to activate both the cytotoxic T cell (CD8+ naive T cells) and also T helper cells (CD4+ naive T cells). • 2. Tumor infiltrating leukocytes • 3. CD19 is widely expressed during all phases of B cell development until terminal differentiation into plasma cells. • 4. […] M1 macrophages: produced along with inflammatory reaction. […] CD8-positive T cells: are a critical subpopulation of MEW class I-restricted T cell and are mediators of adaptive immunity.

[11] = Microsomal stability; assay type: in vitro ADME; details: Human
[12] = tested on: S. typhimurium TA98, TA100, TA1535 and E. coli WP2 uvrA + E. coli WP2[pKM101] strains; assay: Mutagenicity testing
[13] = target: LIF (Homo sapiens, UniProt P15018); assay: biochemical
[14] = Hepatocyte stability; assay type: in vitro ADME; details: Rat
[15] = Plasma stability; assay type: in vitro ADME; details: Human
[16] = tested on: MM51; assay: Murine syngeneic MM51 model; assay type: in vivo; details: 1 and 5 mg/kg
Source text: (§1) . Blockade of LIF-LIFR interaction reduced the STAT3 phosphorylation, mTOR and further downstream signaling cascades. […]. Our findings establish EC359 as a novel LIF/LIFR targeting drug with therapeutic perspectives for patients with advanced primary tumors. LIF/LIFR targeting may result in the blockade of JAK-STAT signaling pathway as well as cancer fibroblast associated pro invasive tumor microenvironment in regular as well as therapy resistant tumors

[17] = Microsomal stability; assay type: in vitro ADME; details: Mouse
[18] = Solubility: pION, kinetic, thermodynamic; assay type: physicochemical
[19] = target: hERG membrane (Homo sapiens, UniProt Q12809); assay: Cardiotoxicity assessment (hERG), fluorescence polarization assay; assay type: binding
[20] = PK study in Mouse; assay type: in vivo
[21] = PK study in Rat
[22] = Hepatocyte stability; assay type: in vitro ADME; details: Human
[23] = tested on: TNBC xenograft; assay: TNBC xenograft (EC359); assay type: in vivo; details: 1 and 5 mg/kg
Source text: as §1

[24] = target: T1, hERG (Homo sapiens, UniProt Q12809); assay: Off-target binding study (CEREP screen); details: no binding up to, read-out: IC 50 of binding, hERG
T1 construct: CEREP (contract screen, per earlier reading)

[25] = tested on: Caco2; assay: Caco2-permeability & efflux transporter substrate activity; assay type: in vitro ADME
[26] = Microsomal stability; assay type: in vitro ADME; details: Dog
[27] = tested on: FC 1295 and imPSCc-2 organoids; assay: Pancreatic cancer / stellate cell line derived organoid system; assay type: cell-based, Murine
Description: Most solid tumors have extensive stroma that not only facilitates the tumor progression but also impedes the delivery of the chemotherapeutic agents. Due to lack of any in-vitro system, presently it is difficult to evaluate any stroma-targeted therapies. Therefore, we developed an organoid system using labeled pancreatic cancer and stellate cell lines. Murine (FC 1295 and […]-2) cell lines cultured in different combinations were grown as an organoid system using matrigel. The organoids, starting day four were treated with either gemcitabine or EC359, a novel mifepristone derived steroidal cytotoxic agent that targets tumor stroma, or both in combination. qRT-PCR analysis of activated stroma signature genes was performed on the mRNA isolated from different treatment groups. H&E, immunohistochemistry, and western blot analysis were performed to further validate our findings. […] Our novel cell line derived organoid model can be utilized for fast, and inexpensive evaluation of stroma-targeted therapies.

[28] = Plasma stability; assay type: in vitro ADME; details: Mouse
[29] = target: T2, GR (Homo sapiens, UniProt P04150); assay: Off-target binding study (CEREP screen); details: no binding up to, read-out: IC 50 of binding, GR
T2 construct: CEREP (contract screen, per earlier reading)

[30] = tested on: triple negative breast cancer (TNBC) stem cells; assay: TNBC stem cell inhibition; assay type: cell-based
[31] = Metabolite identification; assay type: in vitro ADME
[32] = Plasma stability; assay type: in vitro ADME; details: Rat
[33] = Microsomal stability; assay type: in vitro ADME; details: Rat
[34] = Plasma protein binding; assay type: in vitro ADME; details: human
[35] = tested on: cancer-associated fibroblasts (CAFs), alpha-SMA; assay: Cytoskeletal disruption / cancer-associated fibroblasts; assay type: cell-based
[36] = tested on: Mug-Chor cells; assay: 48 hours MTT cell proliferation assay, chordoma; assay type: cell-based
Description: (§2) EC359 was tested two chormoma cell lines (Mug-Chor and U-CH1) for cell viability in 48 hours MTT cell proliferation assay.

[37] = tested on: U-CH1; assay: 48 hours MTT cell proliferation assay, chordoma; assay type: cell-based; details: UCH1; U-CH1, 48 hours MTT
Description: as §2

[38] = tested on: breast and ovarian cancer cells; assay: Combination with HDAC inhibitor, colony formation; assay type: cell-based
Source text: Therapy resistance is a major hurdle in cancer chemo/targeted therapy. The role of LIF/LIFR signaling in inducing stemness and hypoxia is well established in different cancers. […] FIG. 16A depicts colony formation of cancer cells under various conditions. […] FIG. 16B depicts the effect of EC359 alone and in combination with SAHA on STAT 3 phosphorylation. FIG. 16C depicts the effect of EC359 alone and in combination with SAHA on induced apoptosis. FIGS. 17A and 17B depicts the effect of EC359 alone and in combination with SAHA on the growth of TNBC patient derived tumors. […] The combination of EC359 and SAHA provided a greater reduction than either […] alone.

[39] = Single dose MTD; assay type: in vivo; details: 10, 25, 50 and 100 mg/kg
[40] = Plasma stability; assay type: in vitro ADME; details: Dog

Chain of hERG membrane (Q12809 whole entry): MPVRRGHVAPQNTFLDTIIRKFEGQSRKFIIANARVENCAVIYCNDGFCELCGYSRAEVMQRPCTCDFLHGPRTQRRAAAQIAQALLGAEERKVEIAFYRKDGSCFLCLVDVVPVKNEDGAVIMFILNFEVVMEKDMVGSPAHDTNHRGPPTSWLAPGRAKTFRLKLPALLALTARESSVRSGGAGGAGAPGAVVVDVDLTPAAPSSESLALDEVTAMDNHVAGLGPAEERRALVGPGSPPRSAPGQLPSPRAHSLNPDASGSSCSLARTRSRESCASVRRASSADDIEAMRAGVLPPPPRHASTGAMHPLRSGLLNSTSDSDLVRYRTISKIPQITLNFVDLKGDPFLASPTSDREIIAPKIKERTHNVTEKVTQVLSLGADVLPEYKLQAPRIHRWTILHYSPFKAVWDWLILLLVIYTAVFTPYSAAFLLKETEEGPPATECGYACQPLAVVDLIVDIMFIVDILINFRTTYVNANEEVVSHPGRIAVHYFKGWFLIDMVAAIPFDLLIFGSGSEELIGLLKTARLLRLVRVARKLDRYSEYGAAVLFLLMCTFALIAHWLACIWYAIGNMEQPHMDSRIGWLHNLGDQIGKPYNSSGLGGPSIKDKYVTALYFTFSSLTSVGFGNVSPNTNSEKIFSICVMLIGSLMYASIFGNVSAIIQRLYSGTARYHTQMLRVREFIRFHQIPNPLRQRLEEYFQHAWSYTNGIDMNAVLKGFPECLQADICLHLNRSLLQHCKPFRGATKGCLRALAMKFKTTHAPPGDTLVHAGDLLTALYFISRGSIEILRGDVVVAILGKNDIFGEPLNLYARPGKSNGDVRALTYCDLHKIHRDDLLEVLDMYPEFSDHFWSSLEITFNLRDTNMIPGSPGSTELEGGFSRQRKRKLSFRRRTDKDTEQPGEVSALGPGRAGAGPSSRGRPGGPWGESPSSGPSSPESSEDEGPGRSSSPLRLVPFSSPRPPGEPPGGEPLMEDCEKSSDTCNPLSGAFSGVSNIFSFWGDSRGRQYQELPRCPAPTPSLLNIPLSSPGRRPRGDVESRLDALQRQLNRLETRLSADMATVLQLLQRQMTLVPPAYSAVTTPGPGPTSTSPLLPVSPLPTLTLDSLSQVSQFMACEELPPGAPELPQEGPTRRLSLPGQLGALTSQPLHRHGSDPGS
T1 sequence (Q12809 whole entry): as above
T2 sequence (P04150 whole entry): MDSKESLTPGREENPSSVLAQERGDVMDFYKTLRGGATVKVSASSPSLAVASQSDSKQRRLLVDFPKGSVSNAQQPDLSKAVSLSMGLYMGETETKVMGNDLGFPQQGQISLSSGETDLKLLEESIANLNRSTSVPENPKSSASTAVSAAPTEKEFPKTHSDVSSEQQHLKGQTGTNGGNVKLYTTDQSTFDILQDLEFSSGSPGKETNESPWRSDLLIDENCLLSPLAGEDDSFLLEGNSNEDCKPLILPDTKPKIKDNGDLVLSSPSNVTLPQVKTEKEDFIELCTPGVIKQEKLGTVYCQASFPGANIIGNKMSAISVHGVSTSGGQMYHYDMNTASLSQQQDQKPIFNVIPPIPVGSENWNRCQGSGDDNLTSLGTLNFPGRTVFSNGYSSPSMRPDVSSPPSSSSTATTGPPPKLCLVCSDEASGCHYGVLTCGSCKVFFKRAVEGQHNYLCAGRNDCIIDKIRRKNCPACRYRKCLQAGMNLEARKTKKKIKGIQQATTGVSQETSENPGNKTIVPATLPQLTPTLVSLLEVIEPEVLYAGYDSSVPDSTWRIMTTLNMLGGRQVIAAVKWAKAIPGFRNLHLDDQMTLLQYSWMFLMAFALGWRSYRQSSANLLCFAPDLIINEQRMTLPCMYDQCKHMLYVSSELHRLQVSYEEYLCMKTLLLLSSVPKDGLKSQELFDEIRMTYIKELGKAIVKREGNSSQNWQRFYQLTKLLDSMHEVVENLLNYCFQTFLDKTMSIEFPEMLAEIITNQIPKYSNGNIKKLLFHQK
Chain of LIF (P15018 23-202): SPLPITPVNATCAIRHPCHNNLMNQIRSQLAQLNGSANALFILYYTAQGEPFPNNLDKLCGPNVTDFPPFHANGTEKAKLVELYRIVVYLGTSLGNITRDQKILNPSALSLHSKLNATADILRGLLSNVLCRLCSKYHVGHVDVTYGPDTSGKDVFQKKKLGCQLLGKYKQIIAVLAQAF

For `C#CC(F)(F)[C@]1(O)CC[C@H]2[C@@H]3CCC4=CC(=O)CCC4=C3[C@@H](c3ccc(-c4c(C)cc(C)cc4C)cc3)C[C@@]21C` [EC359, 17α-(1,1-difluoro-2-propyn-1-yl)-17β-hydroxy-11β-[4-p-(2,4,6-trimethylphenyl)phenyl]estra-4,9-dien-3-one], the fraction unbound [1] was 0.0037, the “cytotoxicity (IC50's) in cytotoxicity assays” value [2] was “low nano-molar range” and the fraction unbound [3] was 0.0017. The “formation of colonies in soft agar” value [4] was “blocked formation of colonies”, the Hepatocyte stability [5] was “Rat & Dog-low” and the Hepatocyte stability [6] was “Human & Mouse-moderate”. For the same molecule, the CYP inhibition [7] was 2D6 inhibition, the “liver damage (HFD induced steatohepatisis)” value ([8]; after 4 months of HFD, rats) was “significantly reduced” and the “fibrosis, Picrosirius red staining of liver tissue” value ([8]; intermediary and higher dose) was “Fibrosis was evident”. The “efficacy in rat models of liver fibrosis” value ([8]; rat models of liver fibrosis) was “showed efficacy”, the “fibrosis, Picrosirius red staining of liver tissue” value ([8]; rats) was “minimal fibrosis” and the fraction unbound [9] was 0.0011. For the same molecule, the “tumor specific infiltration of lymphocytes and macrophages” value ([10]; ID-8 Ovarian cancer model) was “enhanced”, the M1 macrophages ([10]; ID-8 model) was “increased” and the “tumor specific accumulation of CD3+T, CD4+T and CD8+T cells” value ([10]; ID-8 model) was “increased”. The tumor burden ([10]; ID-8 ovarian syngeneic murine tumor model) was “significantly reduced”, the “combination with PD-L1 treatment” value ([10]; ovarian cancer ID-8 syngeneic mice model) was “synergizes PD-L1 treatment” and the Microsomal stability [11] was “Human & Mouse-moderate”. For the same molecule, the Mutagenicity testing [12] was “No mutagenicity”, the Kd [13] was greater than 5000 nM and the Hepatocyte stability [14] was “Rat & Dog-low”. The “Plasma stability (% remaining at 60 min)” value [15] was 113.92%, the tumor burden [16] was “dose dependently reduced tumor burden” and the Microsomal stability [17] was “Human & Mouse-moderate”. For the same molecule, the solubility [18] was less than 10 µg/mL, the “Cardiotoxicity assessment (hERG)” value [19] was “No liability” and the oral bioavailability ([20]; Mouse) was “Orally bioavailable”. For the same molecule, the “Mouse PK (p.o)” value ([20]; p.o) was 1.0 h, the “Rat PK (iv)” value ([21]; iv) was 6 h and the oral bioavailability ([21]; rat) was “high oral bioavailability; also recorded: Orally bioavailable”. The half-life ([21]; rats) was “long half-life”, the Hepatocyte stability [22] was “Human & Mouse-moderate” and the tumor burden [23] was “dose dependently reduced tumor burden”. For the same molecule, the IC50 [24] was greater than 30000 nM, the Caco2-permeability [25] was “Low permeable” and the “efflux transporter substrate activity” value [25] was “No efflux transporter”. For the same molecule, the Microsomal stability [26] was “Rat & Dog-low”, the “expression of markers of activated stroma (western blot)” value [27] was “reduced the expression of markers of activated stroma including alpha-SMA, and vimentin” and the “relative reduction in GFP fluorescence” value ([27]; as compared to control) was 46%. The “Plasma stability (% remaining at 60 min)” value [28] was 104.91%, the IC50 [29] was greater than 10000 nM and the TNBC stem cells [30] was “inhibited”. The Major metabolic pathway [31] was “Major metabolic pathway-Phase I”, the glucuronide metabolites ([31]; low CL in UDPGA) was “metabolism; No glucuronide” and the “Plasma stability (% remaining at 60 min)” value [32] was 108.64%. For the same molecule, the Microsomal stability [33] was “Rat & Dog-low”, the fraction unbound [34] was 0.0002 and the “cytoskeletal disruption, targeting CAFs” value [35] was “inhibition of alpha-SMA but not beta-tubulin”. For the same molecule, the IC50 [36] was 85 nM, the IC50 [37] was 140 nM and the “combination with HDAC inhibitor” value [38] was “works synergistically”. The “Single dose MTD” value [39] was “No toxicity observed” and the “Plasma stability (% remaining at 60 min)” value [40] was 105.61%.
